# Test results reported in US11590117B2, “Treatment of a hematologic malignancy with 2-(4-chlorophenyl)-n-((2-(2,6-dioxopiperidin-3-yl)-1-oxoisoindolin-5-yl)methyl)-2,2-difluoroacetamide” (priority 2016, dated 2023).
# Key:
# [1] = test system: THLE-2; assay: CellTiter-Glo (CTG) cell proliferation assay, 72 hours, counter-screen; format: cell-based, human
# Protocol: Preparation of Solutions of Test Article: Compounds were plated into black 384-well plates (Corning Inc.) to a final DMSO volume of 0.1% assuming a maximal volume of 50 μL. A 10-point dose response starting at 10 μM with a 1:3 dilution was printed in duplicate by acoustic dispense using the EDC ATS-100 platform.
# Cell Proliferation Assays: The effect of Compound 1 on the proliferation/viability of the hematological cell lines (Table 1 Table, Table 2 and Table 3), THLE-2, or PBMCs was assessed after 72 hours incubation using CTG (Promega), according to manufacturer's instructions. Hematological cell lines were dispensed into compound plates by a Multidrop™ Combi Reagent Dispenser (Thermo Scientific, Waltham, Mass.) at a concentration of 0.1 to 0.3×10^6 cells per mL in a 50 μL total volume. THLE-2 cells were seeded out at 1000 cells per well in 50 μL volume and incubated for 72 hours. At 72 hours, 25 μL per well of CTG was dispensed by a Multidrop™ Combi Reagent Dispenser and adenosine triphosphate (ATP) release by viable cells was measured as relative luminescence units after 30 minutes using the Envision platform.
# In order to calculate the therapeutic window for Compound 1, the compound was counter-screened against the immortalized (but non-tumorigenic) human hepatocyte-derived cell line THLE-2 (Pfeifer, et al, Proc Natl Acad Sci USA 1993 90(11):5123-5127) and against primary human PBMCs. […] The Compound 1 therapeutic window for the 10 sensitive AML cell lines as compared to THLE-2 cells ranged from 4.1 (KG-1a) to 57 (HNT-34) (method 1) or from 5.7 (KG-1a) to 79.5 (HNT-34) (method 2); the Compound 1 therapeutic window as compared to PBMCs ranged from 2.6 (KG-1a) to 36 (HNT-34)), or from 1.5 (KG-1a) to 21 (HNT-34) (Table 6).
# Cultures of 11 different AML cell lines were incubated 72 hours with Compound 1 at concentrations of 0.5 nM to 10 μM. Proliferation was assessed using the CellTitre-Glo® assay. Results for cultures incubated with Compound 1 were normalized to results for control cultures for each cell line. […]
# [2] = test system: HNT-34 cells and PBMCs; assay: JC-1 mitochondrial membrane potential assay; format: cell-based, human; settings: HNT-34 cells over non-pre-activated PBMCs; 0.1 μM Compound 1; 72 hours
# [3] = THLE-2 normal cells, 0.1 nM to 100 μM
smiles,measurement,setting,value
"O=C1CCC(N2Cc3cc(CNC(=O)C(F)(F)c4ccc(Cl)cc4)ccc3C2=O)C(=O)N1 (stereo not shown) [Compound 1, 2-(4-chlorophenyl)-N-((2-(2,6-dioxopiperidin-3-yl)-1-oxoisoindolin-5-yl)methyl)-2,2-difluoroacetamide]",IC50,"[1]; Homo sapiens, THLE-2, 72 h, THLE-2 non-tumorigenic human hepatocyte-derived cell line, 72 hours, read-out: antiproliferative IC50",10 µM
same,AUC Method 1,[1]; [3],393.0 arbitrary units
same,AUC Method 2,[1]; [3],549.1 arbitrary units
same,difference in increase of membrane depolarization,[2],~7 fold
